Among the test systems are 786-0 renal; CAKI-1 renal; KM12 colon; NCI-H226 lung; NCI-H460 lung; NCI-H522 lung; OVCAR-3 ovarian; SNB-75 CNS; UO-31 renal.
Holding throughout (assay): NCI-60 cell line screen, 48 h

Structures are written as SMILES.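 48-hour exposure; five concentrations; linearly interpolated endpoints. Here, GI50 denotes the concentration required for 50% inhibition of growth. At the TGI there is no net growth.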

Turning to `O=C(CI)Nc1ccc(Br)cc1`, the GI50 in the test with 786-0 renal was 2.23 µM; in the test on CAKI-1 renal it was 1.69 µM; with KM12 colon, 2.9 µM; in the test on NCI-H226 lung, 3.78 µM; in the test with NCI-H460 lung, 12.4 µM; in the test with NCI-H522 lung it was 1.53 µM. Besides, the GI50 with OVCAR-3 ovarian is 1.72 µM; in the test on SNB-75 CNS it was 5.42 µM; with UO-31 renal, 1.63 µM. For the same compound, the TGI with 786-0 renal stood at 4.62 µM; with CAKI-1 renal, 3.51 µM; in the test on KM12 colon it was 10.7 µM; with NCI-H226 lung, 19.2 µM; in the test with NCI-H460 lung, 45.8 µM; in the test on NCI-H522 lung, 3.47 µM. Moreover, the TGI in the test with OVCAR-3 ovarian came to 3.25 µM; in the test on SNB-75 CNS it was 24.7 µM; with UO-31 renal, 3.17 µM.
For the compound `COC(=O)[C@@]12C3=NO[C@]1(C(=O)OC)C(O[Si](C)(C)C(C)(C)C)[C@@H](OC(C)=O)[C@@H](OC(C)=O)[C@@H]2[C@@H](OCc1ccccc1)CC3` (stereo partly specified), the TGI with 786-0 renal, in the test on CAKI-1 renal, in the test on KM12 colon, in the test with NCI-H226 lung, with NCI-H460 lung and in the test on NCI-H522 lung was above 100 µM in each case. Moreover, the TGI with OVCAR-3 ovarian is above 100 µM; in the test with SNB-75 CNS it was above 73.7 µM; with UO-31 renal, above 100 µM.
In the case of `Cc1ccc(S(=O)(=O)NNS(C)(=O)=O)cc1`, the TGI with 786-0 renal, with CAKI-1 renal, in the test with KM12 colon, with NCI-H460 lung, with NCI-H522 lung and with OVCAR-3 ovarian was above 100 µM throughout. Besides, the TGI in the test on SNB-75 CNS and with UO-31 renal was above 100 µM in each case.
Regarding `O=C1C(Cl)=C(NCCCN(CCCNC2=C(Cl)C(=O)c3ccccc3C2=O)C2=C(Cl)C(=O)c3ccccc3C2=O)C(=O)c2ccccc21`, the GI50 with 786-0 renal is 4.62 µM; in the test with KM12 colon, 3 µM; with NCI-H226 lung, 17.3 µM; with NCI-H460 lung, 3.02 µM; in the test with NCI-H522 lung it was 1.97 µM; with OVCAR-3 ovarian it was 1.71 µM. For the same compound, the GI50 is 20.6 µM in the test with SNB-75 CNS and 1.25 µM in the test on UO-31 renal. For the same compound, the TGI with 786-0 renal is 18.2 µM; in the test with KM12 colon it was 12.8 µM; with NCI-H226 lung it was 35.1 µM; with NCI-H460 lung, above 100 µM; in the test with NCI-H522 lung, 4.98 µM; with OVCAR-3 ovarian, 5.71 µM. For the same compound, the TGI in the test on SNB-75 CNS stood at 39.3 µM; in the test on UO-31 renal it was 5.93 µM.
Turning to `CC(=O)OCC1OC(n2c(=S)n(-c3ccccc3)c(=O)c3cc(Br)ccc32)C(OC(C)=O)C1OC(C)=O` (stereo unspecified), the TGI with 786-0 renal, in the test on CAKI-1 renal, with KM12 colon, in the test on NCI-H226 lung, with NCI-H460 lung and with NCI-H522 lung was above 100 µM in each case. For the same compound, the TGI with OVCAR-3 ovarian, in the test with SNB-75 CNS and with UO-31 renal was above 100 µM in each case.
Take `COc1ccc2c(c1)[n+]([O-])c(-c1ccccc1Cl)c(N)[n+]2[O-]`: the TGI in the test on 786-0 renal is above 100 µM; in the test on CAKI-1 renal, above 100 µM; in the test with KM12 colon it was above 100 µM; in the test on NCI-H226 lung, above 100 µM; in the test with NCI-H460 lung, above 100 µM; in the test on NCI-H522 lung, 31.3 µM. For the same compound, the TGI in the test on OVCAR-3 ovarian, in the test on SNB-75 CNS and in the test with UO-31 renal was above 100 µM each time.
Regarding `CC(=O)C1C(=O)C(=O)N(CCN2C(=O)C(=O)C(C(C)=O)C2=O)C1=O` (stereo unspecified), the TGI in the test on 786-0 renal, in the test on CAKI-1 renal, with KM12 colon, in the test with NCI-H226 lung, in the test with NCI-H460 lung and in the test on NCI-H522 lung was above 100 µM each time. The TGI in the test on OVCAR-3 ovarian, in the test with SNB-75 CNS and in the test with UO-31 renal was above 100 µM throughout.
`N#Cc1ccc(C2SCc3nc4ccccc4n32)cc1` (stereo unspecified): the TGI with 786-0 renal is above 100 µM; with CAKI-1 renal, above 100 µM; in the test on KM12 colon it was above 100 µM; in the test on NCI-H460 lung it was above 100 µM; with NCI-H522 lung it was 75.8 µM; in the test with OVCAR-3 ovarian, above 100 µM. The TGI is above 100 µM in the test with SNB-75 CNS and 73.6 µM in the test on UO-31 renal.
With `CCN(CC)c1ccc(C2N3CCCCC3[C@@H]3c4[nH]c5ccccc5c4CCN23)cc1` (stereo partly specified), the TGI in the test on 786-0 renal is above 100 µM; with CAKI-1 renal, above 100 µM; in the test on NCI-H460 lung, 55.5 µM; in the test with OVCAR-3 ovarian, 71.4 µM; with SNB-75 CNS, 29.1 µM; in the test on UO-31 renal, above 100 µM.
Regarding `CC(=O)CC(=O)Nc1ccccc1C(F)(F)F`, the TGI in the test with 786-0 renal, in the test with CAKI-1 renal, in the test with NCI-H226 lung, in the test with NCI-H460 lung, with NCI-H522 lung and in the test on SNB-75 CNS was above 100 µM in each case. Further, the TGI in the test with UO-31 renal is above 100 µM.
Turning to `CCCCCCCCCCCCCS(=O)(=O)NCC(N)=O`, the TGI with 786-0 renal, in the test on KM12 colon, in the test on NCI-H226 lung, with NCI-H460 lung, in the test with NCI-H522 lung and in the test with OVCAR-3 ovarian was above 100 µM throughout. Besides, the TGI in the test on SNB-75 CNS is 74.7 µM; with UO-31 renal it was above 100 µM.
Regarding `CCN(CC)C(=S)SS(C)(=O)=O`, the TGI in the test with 786-0 renal is 33.3 µM; in the test with CAKI-1 renal, 57.1 µM; with KM12 colon it was 31.7 µM; in the test with NCI-H226 lung, 31.3 µM; in the test with NCI-H522 lung, 0.137 µM; in the test with SNB-75 CNS, above 100 µM. Also, the TGI in the test with UO-31 renal was determined as 37.3 µM.
For the compound `CSc1ccc(C(=O)/C=C/c2ccc(Cl)cc2Cl)cc1`, the GI50 in the test on 786-0 renal was 16.9 µM; in the test on CAKI-1 renal it was 33.4 µM; in the test with KM12 colon it was 22.2 µM; in the test on NCI-H226 lung, 26 µM; in the test on NCI-H460 lung it was 26.3 µM; in the test on NCI-H522 lung it was 14.4 µM. Moreover, the figures for the GI50 in the test on OVCAR-3 ovarian and in the test with UO-31 renal were 21.9 µM and 22.4 µM, respectively. The TGI in the test with 786-0 renal is 36.2 µM; with CAKI-1 renal, 92 µM; in the test on KM12 colon it was 51.8 µM; in the test on NCI-H226 lung, 82.9 µM; in the test with NCI-H460 lung, 96.4 µM; with NCI-H522 lung it was 37.2 µM. Further, the TGI in the test on OVCAR-3 ovarian was 49.2 µM; in the test on UO-31 renal it was 81.7 µM.
With `O=C(N/C(=C\c1ccc(/C=C(\NC(=O)c2ccccc2)c2nc3c(O)nc(S)nc3[nH]2)cc1)c1nc2c(O)nc(S)nc2[nH]1)c1ccccc1`, the TGI in the test on 786-0 renal was above 100 µM; in the test on CAKI-1 renal, above 100 µM; with KM12 colon, above 100 µM; in the test with NCI-H460 lung, above 100 µM; in the test with NCI-H522 lung, 41.1 µM; in the test on OVCAR-3 ovarian, above 100 µM. In addition, the figures for the TGI with SNB-75 CNS and in the test with UO-31 renal were 84.7 µM and above 100 µM, respectively.
Turning to `NC(=O)c1ncn(C2OC(CO)C(O)C2O)c1O` (stereo unspecified), the TGI with 786-0 renal, in the test with CAKI-1 renal, with KM12 colon, in the test with NCI-H226 lung, in the test on NCI-H460 lung and in the test on OVCAR-3 ovarian was above 100 µM in each case. The TGI in the test on SNB-75 CNS and with UO-31 renal was above 100 µM each time.
As to `O=C1[C@@H]2C(c3ccccc3[N+](=O)[O-])=NO[C@@H]2C(=O)N1c1ccc(Cc2ccc(N3C(=O)[C@H]4C(c5ccccc5[N+](=O)[O-])=NO[C@H]4C3=O)cc2)cc1`, the TGI in the test on 786-0 renal, with CAKI-1 renal, with KM12 colon, with NCI-H460 lung, in the test with NCI-H522 lung and in the test with OVCAR-3 ovarian was above 100 µM throughout. For the same compound, the TGI in the test with SNB-75 CNS and in the test on UO-31 renal was above 100 µM throughout.
Turning to `COc1ccc(C(=O)C(C(=O)C(=O)NCCCNC(=O)C(=O)C(C(=O)c2ccc(OC)cc2)c2ccc(OC)cc2)c2ccc(OC)cc2)cc1` (stereo unspecified), the TGI in the test on 786-0 renal, in the test on KM12 colon, with NCI-H226 lung, with NCI-H460 lung, in the test with NCI-H522 lung and with OVCAR-3 ovarian was above 100 µM each time. Further, the TGI with SNB-75 CNS and in the test on UO-31 renal was above 100 µM in each case.
Consider `Cc1ccc(Nc2nc(-c3ccc(-c4ccc([N+](=O)[O-])cc4)o3)cs2)cc1`, for which the TGI with 786-0 renal, with CAKI-1 renal, in the test with KM12 colon, in the test with NCI-H226 lung, with NCI-H460 lung and in the test on OVCAR-3 ovarian was above 100 µM each time. The TGI in the test on SNB-75 CNS and in the test on UO-31 renal was above 100 µM throughout.
As to `CC1=C2C=CC(=O)C[C@@]2(C)CCC1`, the TGI in the test on 786-0 renal, in the test on CAKI-1 renal, in the test with KM12 colon, with NCI-H460 lung, in the test on NCI-H522 lung and in the test on OVCAR-3 ovarian was above 100 µM each time. Moreover, the TGI with SNB-75 CNS and with UO-31 renal was above 100 µM in each case.
Turning to `CN1CCN(c2nc(N)c(Br)c(Cl)n2)CC1`, the TGI in the test on 786-0 renal, with CAKI-1 renal, with KM12 colon, in the test with NCI-H460 lung, in the test with NCI-H522 lung and in the test on OVCAR-3 ovarian was above 100 µM in each case. Further, the TGI with SNB-75 CNS and in the test with UO-31 renal was above 100 µM throughout.

The record behind these values is PubChem BioAssay (NCI).
